Assay [1] has as its system Escherichia coli. The assay is described as follows: Induction of Cu2+-dependent DNA cleavage in pSP64 DNA assessed as form 2 DNA formation at 1 uM.
The subject of assay [2] is Escherichia coli. The assay is described as follows: Induction of Cu2+-dependent DNA cleavage in pSP64 DNA assessed as form 2 DNA formation at 0.01 uM.
Assay [3] has as its system Escherichia coli. The assay is described as follows: Induction of Cu2+-dependent DNA cleavage in pSP64 DNA assessed as form 2 DNA formation at 10 uM.
For assay [4], the system named is Escherichia coli. The assay is described as follows: Induction of Cu2+-dependent DNA cleavage in pSP64 DNA assessed as form 2 DNA formation at 5 uM.
Assay [5] concerns Escherichia coli. The assay is described as follows: Induction of Cu2+-dependent DNA cleavage in pSP64 DNA assessed as form 3 DNA formation.
For assay [6], the system named is Escherichia coli. The assay is described as follows: Induction of Cu2+-dependent DNA cleavage in pSP64 DNA assessed as form 2 DNA formation at 0.1 uM.

Drawing on ChEMBL document CHEMBL1158722, “Umbelactonyl cinnamate derivatives from Crypteronia paniculata that mediate DNA strand scission” (J Nat Prod, 2005), this text covers Activity for 1 compound.

Calls of active or inactive are those of the source. No cut-off for these calls is given here.

As for `CC1=CC(=O)O[C@H]1COC(=O)/C=C/c1ccc(O)c(O)c1`, the Activity with Escherichia coli [1] was found to be 68%; in the assay with Escherichia coli [2] it was 16%; with Escherichia coli [3], 92%; in the assay with Escherichia coli [4] it was 88%; in the assay with Escherichia coli [6] it was 32%. In the assay on Escherichia coli [5], the outcome was inactive.
